pIC50: −log10 of the molar value. Calls of active or inactive are those of the source. The calls are words filed in the database; no cut-off is given here.
Experiments:
MCF7 = assay: Antiproliferative activity against human MCF7 cells assessed as cell growth inhibition incubated for 8 hrs by CCK8 assay; assay type: functional, cell-based; conditions: MCF7, 8 h
Histone deacetylase 2 [1] = target: T1, Histone deacetylase 2 (Homo sapiens, UniProt Q92769); assay: Inhibition of HDAC2 in HEL cells assessed as increase in acetyl-H4 levels at 20 to 100 nM incubated for 24 hrs by western blot analysis; assay type: cell-based; conditions: dose 20-100 nM
[2] = Metabolic stability in ICR mouse liver microsome assessed as half life; assay type: ADME; conditions: liver microsomes
HEL [3] = assay: Induction of cell cycle arrest in HEL cells assessed as change in S-phase ratio at 0.02 uM incubated for 48 hrs by PI staining based flow cytometry relative to control; assay type: functional, Homo sapiens
[4] = Toxicity in BALB/C mouse xenografted with HEL cells assessed as animal death at 5 to 10 mg/kg, po qd for 14 days consecutively; assay type: organism-based; conditions: in vivo, 336 h, dose 5-10 mg/kg, time 14 day
HEL [5] = assay: Induction of apoptosis in HEL cells assessed as apoptotic cells at 0.5 uM incubated for 48 hrs by annexin V-FITC/PI staining based flow cytometry (reference value: 4.23%); assay type: functional, Homo sapiens
HepG2 = assay: Antiproliferative activity against human HepG2 cells assessed as cell growth inhibition incubated for 8 hrs by CCK8 assay; assay type: functional, cell-based; conditions: HepG2, 8 h
Histone deacetylase 2 [6] = target: T1, Histone deacetylase 2; assay: In vivo inhibition of HDAC2 in HEL cells xenografted in BALB/C mouse assessed as upregulation of acetyl-H4 levels at 5 to 10 mg/kg by immunohistochemical staining method; assay type: functional, organism-based; conditions: dose 5-10 mg/kg
HEL [7] = assay: Antitumor activity against HEL cells xenografted in BALB/C mouse assessed as T/C value at 5 mg/kg, po qd for 14 days consecutively by caliper method relative to control; assay type: functional, Homo sapiens; conditions: time 14 day
HCT-116 = assay: Antiproliferative activity against human HCT-116 cells assessed as cell growth inhibition incubated for 8 hrs by CCK8 assay; assay type: functional, cell-based; conditions: HCT-116, 8 h
[8] = Toxicity in BALB/C mouse xenografted with HEL cells assessed as change in body weight at 5 to 10 mg/kg, po qd for 14 days consecutively; assay type: organism-based; conditions: in vivo, 336 h, dose 5-10 mg/kg, time 14 day
HEL [9] = assay: Antitumor activity against HEL cells xenografted in BALB/C mouse assessed as tumor growth inhibition at 10 mg/kg, po qd for 14 days consecutively by caliper method relative to control; assay type: functional, Homo sapiens; conditions: 336 h, time 14 day, read-out: TGI
A549 = assay: Antiproliferative activity against human A549 cells assessed as cell growth inhibition incubated for 8 hrs by CCK8 assay; assay type: functional, cell-based; conditions: A549, 8 h
[10] = target: T2, DNA topoisomerase 1 (Homo sapiens) (UniProt P11387); assay: Inhibition of recombinant Top1 (unknown origin) assessed as inhibition of relaxation of supercoiled pBR322 plasmid DNA at 50 uM incubated for 15 mins by ethidium bromide staining based agarose gel electrophoresis analysis
T2 sequence (whole entry): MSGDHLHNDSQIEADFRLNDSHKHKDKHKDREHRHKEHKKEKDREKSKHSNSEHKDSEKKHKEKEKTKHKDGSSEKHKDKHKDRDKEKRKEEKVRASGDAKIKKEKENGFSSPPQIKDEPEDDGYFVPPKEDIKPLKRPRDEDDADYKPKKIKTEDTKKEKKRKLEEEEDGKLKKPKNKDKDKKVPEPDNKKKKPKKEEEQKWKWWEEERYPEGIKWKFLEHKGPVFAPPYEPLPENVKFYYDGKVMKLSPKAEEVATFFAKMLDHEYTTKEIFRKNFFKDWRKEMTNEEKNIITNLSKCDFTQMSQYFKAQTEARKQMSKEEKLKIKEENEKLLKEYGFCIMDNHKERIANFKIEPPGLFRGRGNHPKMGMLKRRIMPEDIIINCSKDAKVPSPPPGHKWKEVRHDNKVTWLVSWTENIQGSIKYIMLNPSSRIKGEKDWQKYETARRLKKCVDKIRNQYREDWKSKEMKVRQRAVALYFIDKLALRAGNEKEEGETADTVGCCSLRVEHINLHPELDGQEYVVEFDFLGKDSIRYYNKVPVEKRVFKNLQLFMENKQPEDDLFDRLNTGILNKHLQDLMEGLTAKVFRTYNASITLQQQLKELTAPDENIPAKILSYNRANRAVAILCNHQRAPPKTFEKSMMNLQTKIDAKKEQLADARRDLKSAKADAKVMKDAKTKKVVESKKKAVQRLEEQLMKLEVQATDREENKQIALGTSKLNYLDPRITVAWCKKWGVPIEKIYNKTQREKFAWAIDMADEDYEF

[11] = target: DNA topoisomerase 2-alpha (Homo sapiens) (UniProt P11388); assay: Inhibition of recombinant Top2 (unknown origin) assessed as inhibition of relaxation of supercoiled pBR322 plasmid DNA at 100 uM incubated for 15 mins by ethidium bromide staining based agarose gel electrophoresis analysis
HEL [12] = assay: Induction of cell cycle arrest in HEL cells assessed as change in S-phase ratio at 0.5 uM incubated for 48 hrs by PI staining based flow cytometry relative to control; assay type: functional, Homo sapiens
HEL [13] = assay: Antitumor activity against HEL cells xenografted in BALB/C mouse assessed as T/C value at 10 mg/kg, po qd for 14 days consecutively by caliper method relative to control; assay type: functional, Homo sapiens; conditions: time 14 day
HEL [14] = assay: Induction of apoptosis in HEL cells assessed as apoptotic cells at 0.1 uM incubated for 48 hrs by annexin V-FITC/PI staining based flow cytometry (reference value: 3.95%); assay type: functional, Homo sapiens
[15] = target: T2, DNA topoisomerase 1 (Homo sapiens); assay: Inhibition of recombinant Top1 (unknown origin) assessed as inhibition of relaxation of supercoiled pBR322 plasmid DNA at 100 uM incubated for 15 mins by ethidium bromide staining based agarose gel electrophoresis analysis
HEL [16] = assay: Induction of cell cycle arrest in HEL cells assessed as change in S-phase ratio at 0.1 uM incubated for 48 hrs by PI staining based flow cytometry relative to control; assay type: functional, Homo sapiens
Histone deacetylase 1 = Histone deacetylase 1 (Homo sapiens, UniProt Q13547); assay: Inhibition of HDAC1 in HEL cells assessed as increase in acetyl-H3 levels at 20 to 100 nM incubated for 24 hrs by western blot analysis; assay type: cell-based; conditions: dose 20-100 nM
K562 = assay: Antiproliferative activity against human K562 cells assessed as cell growth inhibition incubated for 8 hrs by CCK8 assay; assay type: functional, cell-based; conditions: K562, 8 h

T1 sequence (Q92769 whole entry): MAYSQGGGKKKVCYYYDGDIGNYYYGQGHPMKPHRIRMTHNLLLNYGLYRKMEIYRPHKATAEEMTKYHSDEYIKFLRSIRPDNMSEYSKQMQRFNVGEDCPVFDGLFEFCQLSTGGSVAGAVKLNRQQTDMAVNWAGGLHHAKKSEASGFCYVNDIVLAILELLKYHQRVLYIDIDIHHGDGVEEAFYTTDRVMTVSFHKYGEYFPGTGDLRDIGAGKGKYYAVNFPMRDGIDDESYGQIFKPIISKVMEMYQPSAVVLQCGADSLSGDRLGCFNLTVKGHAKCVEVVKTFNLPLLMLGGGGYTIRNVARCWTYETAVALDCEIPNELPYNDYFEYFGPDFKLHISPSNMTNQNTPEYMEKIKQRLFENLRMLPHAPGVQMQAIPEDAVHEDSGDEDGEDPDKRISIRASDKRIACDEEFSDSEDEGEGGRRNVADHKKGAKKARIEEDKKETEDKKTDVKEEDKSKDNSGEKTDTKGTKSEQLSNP
Chain of DNA topoisomerase 2-alpha (Homo sapiens) (P11388 whole entry): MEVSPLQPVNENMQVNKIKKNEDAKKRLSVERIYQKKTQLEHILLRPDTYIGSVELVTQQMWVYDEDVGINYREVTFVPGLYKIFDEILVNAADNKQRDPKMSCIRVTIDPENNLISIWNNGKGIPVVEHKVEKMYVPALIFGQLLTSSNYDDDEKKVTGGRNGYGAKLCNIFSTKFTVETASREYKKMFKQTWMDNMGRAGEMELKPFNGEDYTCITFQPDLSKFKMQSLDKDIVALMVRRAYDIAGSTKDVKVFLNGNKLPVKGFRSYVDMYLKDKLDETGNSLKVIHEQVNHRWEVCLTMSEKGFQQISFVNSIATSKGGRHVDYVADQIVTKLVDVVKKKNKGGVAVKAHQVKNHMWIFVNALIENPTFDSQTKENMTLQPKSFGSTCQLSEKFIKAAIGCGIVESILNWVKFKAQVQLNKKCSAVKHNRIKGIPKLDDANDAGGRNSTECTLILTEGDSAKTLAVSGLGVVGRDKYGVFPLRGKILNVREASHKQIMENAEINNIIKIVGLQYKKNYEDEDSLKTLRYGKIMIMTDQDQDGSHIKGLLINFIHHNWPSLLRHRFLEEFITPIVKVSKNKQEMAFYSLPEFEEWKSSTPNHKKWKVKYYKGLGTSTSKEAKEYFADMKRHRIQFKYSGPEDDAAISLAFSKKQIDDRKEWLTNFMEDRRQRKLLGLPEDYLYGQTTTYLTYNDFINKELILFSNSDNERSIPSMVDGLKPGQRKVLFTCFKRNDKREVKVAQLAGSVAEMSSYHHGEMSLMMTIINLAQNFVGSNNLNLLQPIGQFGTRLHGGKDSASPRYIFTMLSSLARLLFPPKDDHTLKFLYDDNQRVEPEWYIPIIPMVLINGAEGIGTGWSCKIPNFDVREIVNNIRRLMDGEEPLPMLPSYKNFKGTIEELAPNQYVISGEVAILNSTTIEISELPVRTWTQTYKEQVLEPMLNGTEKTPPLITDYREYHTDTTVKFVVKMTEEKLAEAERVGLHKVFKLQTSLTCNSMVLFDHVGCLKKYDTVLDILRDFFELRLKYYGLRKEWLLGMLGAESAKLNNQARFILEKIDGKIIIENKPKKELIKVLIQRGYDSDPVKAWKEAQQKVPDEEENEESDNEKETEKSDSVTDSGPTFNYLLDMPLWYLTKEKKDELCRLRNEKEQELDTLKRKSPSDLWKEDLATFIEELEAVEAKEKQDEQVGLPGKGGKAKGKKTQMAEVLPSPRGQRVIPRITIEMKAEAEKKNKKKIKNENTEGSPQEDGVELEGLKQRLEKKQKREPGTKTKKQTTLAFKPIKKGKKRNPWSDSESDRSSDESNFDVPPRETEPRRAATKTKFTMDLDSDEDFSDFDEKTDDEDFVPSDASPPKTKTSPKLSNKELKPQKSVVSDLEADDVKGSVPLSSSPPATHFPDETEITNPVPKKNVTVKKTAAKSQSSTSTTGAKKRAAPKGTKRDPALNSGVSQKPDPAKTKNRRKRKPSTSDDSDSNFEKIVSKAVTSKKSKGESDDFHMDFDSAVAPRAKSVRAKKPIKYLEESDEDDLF
Chain of Histone deacetylase 1 (Q13547 whole entry): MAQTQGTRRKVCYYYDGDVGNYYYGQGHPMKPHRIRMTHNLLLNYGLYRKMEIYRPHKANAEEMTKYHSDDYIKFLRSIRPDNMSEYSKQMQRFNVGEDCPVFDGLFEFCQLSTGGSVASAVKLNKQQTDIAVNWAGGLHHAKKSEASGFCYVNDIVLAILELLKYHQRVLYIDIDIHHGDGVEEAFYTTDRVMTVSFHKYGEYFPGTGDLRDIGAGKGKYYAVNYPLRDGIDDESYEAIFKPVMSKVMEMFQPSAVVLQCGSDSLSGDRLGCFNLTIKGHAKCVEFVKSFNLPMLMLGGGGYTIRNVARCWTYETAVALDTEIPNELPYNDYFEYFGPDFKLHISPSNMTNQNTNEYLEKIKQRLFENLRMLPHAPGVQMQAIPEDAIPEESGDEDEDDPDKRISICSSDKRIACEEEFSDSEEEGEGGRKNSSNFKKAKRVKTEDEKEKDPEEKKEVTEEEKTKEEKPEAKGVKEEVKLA

CN1c2ccc(F)cc2C(=O)N2CCc3c([nH]c4ccc(OCc5ccc(/C=C/C(=O)NO)cc5)cc34)C21 (configuration not stated)
pIC50 (MCF7): < 5.70
inhibition (Histone deacetylase 2 [1]): Active
half-life [2]: 31.5 min
Activity (HEL [3]): 9.8%
Activity [4]: Non-Toxic
Activity (HEL [5]): 76.45%
pIC50 (HepG2): 6.59
inhibition (Histone deacetylase 2 [6]): Active
T/C (HEL [7]): 54.3%
pIC50 (HCT-116): 6.68
Activity [8]: Non-Toxic
inhibition in vivo at 10 mg/kg (HEL [9]): 68.5%
pIC50 (A549): 6.17
inhibition [10]: Active
inhibition [11]: Active
Activity (HEL [12]): 25.8%
T/C (HEL [13]): 25.5%
Activity (HEL [14]): 56.02%
inhibition [15]: Active
Activity (HEL [16]): 15.4%
inhibition (Histone deacetylase 1): Active
pIC50 (K562): 6.46

— ChEMBL document CHEMBL5046291, “Evodiamine-Inspired Topoisomerase-Histone Deacetylase Dual Inhibitors: Novel Orally Active Antitumor Agents for Leukemia Therapy” (J Med Chem, 2022)
